Each structure is given as a SMILES string.

The test relates to HepG2 LDLR mRNA, qPCR, 6 h. Briefly: cholesterol-dependence of LDLR transcript changes – cell-based, HepG2, RT-PCR, cherry-picked dose, mechanism study for Trib1 inducer project, late-stage follow-up (AID 1053161). The conditions noted are these: active compounds read high.

Take `CN1C(=O)c2cc(NC(=O)c3ccc(C(F)(F)F)cc3)ccc2OC[C@@H]2O[C@H](CC(=O)NC3Cc4ccccc4C3)CC[C@@H]21`: the fold induction (commonly the signal under treatment as a multiple of the control signal) is 2.5.

Source of the values: PubChem BioAssay AID1053161 (Broad Institute, 2014).
